#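 Interpolation was linear, between the two tested concentrations surrounding the appropriate level; five concentrations were tested over 48 hours in 96-well plates. TGI: concentration producing complete growth inhibition.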
# How the values were obtained:
# Test in all cases: NCI anticancer screen, dose series, 48 h
# SK-MEL-5 melanoma = test system: SK-MEL-5 melanoma
# RXF 393 renal = test system: RXF 393 renal
# NCI-H226 lung = test system: NCI-H226 lung
# EKVX NSCLC = test system: EKVX NSCLC
# BT-549 breast = test system: BT-549 breast
# SN12C renal = test system: SN12C renal
# OVCAR-8 ovarian = test system: OVCAR-8 ovarian
# HL-60(TB) leukemia = test system: HL-60(TB) leukemia
# SNB-75 CNS = test system: SNB-75 CNS
# U251 CNS = test system: U251 CNS
# SR leukemia = test system: SR leukemia
# NCI/ADR-RES ovarian = test system: NCI/ADR-RES ovarian
Structure (SMILES),TGI (SK-MEL-5 melanoma),TGI (RXF 393 renal),TGI (NCI-H226 lung),TGI (EKVX NSCLC),TGI (BT-549 breast),TGI (SN12C renal),TGI (OVCAR-8 ovarian),TGI (HL-60(TB) leukemia),TGI (SNB-75 CNS),TGI (U251 CNS),TGI (SR leukemia),TGI (NCI/ADR-RES ovarian)
CC(=O)OC(CN1CCN(c2ccccn2)CC1)Cn1sc2nc(C)cc(C)c2c1=O (configuration not stated),26.1 µM,35.6 µM,> 100 µM,32.4 µM,33.2 µM,37.2 µM,73.9 µM,55.5 µM,32.8 µM,32.1 µM,> 100 µM,67.1 µM
O=C(NC(=S)Nc1ccc2c(c1)Sc1ccccc1O2)c1ccc([N+](=O)[O-])cc1,> 100 µM,> 100 µM,> 100 µM,> 100 µM,> 100 µM,> 100 µM,> 100 µM,> 100 µM,> 100 µM,> 100 µM,> 100 µM,> 100 µM
COc1cc2c(cc1C[C@H]1[C@@H]3C[C@H]4c5c(c6ccccc6n5C)C[C@@H]([C@@H]3CO[C@]1(C)OC(C)=O)N4C)c1c(n2C)C2C[C@H]3C(C(C)=O)=COC[C@H]3[C@H](C1)N2C,6.79 µM,6.04 µM,21.7 µM,2.24 µM,13.3 µM,> 25 µM,8.83 µM,,,> 25 µM,7.62 µM,8.32 µM
CN(C)CCNc1nc2ccccc2c2c1CCCC2,32.4 µM,22.9 µM,55.7 µM,> 100 µM,> 100 µM,89.2 µM,> 100 µM,32.3 µM,56.3 µM,37 µM,,> 100 µM
COC(=O)CCC(C)[C@H]1CCC2C3C(C[C@H](OC(C)=O)[C@@]21C)[C@@]1(C)CCC2(C[C@H]1C[C@H]3OC(C)=O)OOC1(CCCC1)OO2 (some centres not stated),> 100 µM,> 100 µM,> 100 µM,56.4 µM,> 100 µM,> 100 µM,> 100 µM,54.3 µM,> 100 µM,> 100 µM,15.4 µM,> 100 µM
Cc1ccc(S(=O)(=O)CN2C(=O)C(c3ccccc3)(c3ccccc3)C23OC(c2ccc(Cl)cc2)=CC3=O)cc1 (configuration not stated),> 10 µM,> 10 µM,> 10 µM,> 10 µM,> 10 µM,> 10 µM,> 10 µM,> 10 µM,> 10 µM,> 10 µM,,> 10 µM
CCOc1ccc2nc3nc(=O)[nH]c(C)c3c(NCCCN(CC)CC)c2c1,> 100 µM,> 100 µM,> 100 µM,> 100 µM,> 100 µM,> 100 µM,> 100 µM,> 100 µM,> 100 µM,> 100 µM,,> 100 µM
O=Cc1c2n(c3ccccc13)N[C@@](Cc1ccc(O)cc1)(C(=O)O)C2,> 100 µM,,> 100 µM,> 100 µM,> 100 µM,,> 100 µM,> 100 µM,,> 100 µM,> 100 µM,> 100 µM
O=C(O)CSC(CC1(c2ccc(Cl)cc2)NC(=O)CS1)c1ccc(Cl)cc1 (configuration not stated),> 100 µM,,,> 100 µM,> 100 µM,> 100 µM,> 100 µM,> 100 µM,> 100 µM,> 100 µM,> 100 µM,> 100 µM
C(/C=C/c1ccccc1)=Nc1ccc2c(c1)Cc1ccccc1-2,> 100 µM,> 100 µM,> 100 µM,> 100 µM,> 100 µM,> 100 µM,> 100 µM,,> 100 µM,44.4 µM,90.4 µM,> 100 µM
O=C(Cn1cc(-c2ccccc2)nn1)NC1CCCCC1,> 100 µM,,> 100 µM,> 100 µM,> 100 µM,> 100 µM,> 100 µM,> 100 µM,> 100 µM,> 100 µM,> 100 µM,> 100 µM
CC1=NN(c2nc(N)nc(CBr)n2)C(C)(C)C1,26.2 µM,12 µM,12.2 µM,15 µM,28.9 µM,20.5 µM,18.4 µM,,21.7 µM,16.9 µM,17.1 µM,45.4 µM
NC(CSCc1ccc(I)cc1)C(=O)O (configuration not stated),> 100 µM,> 100 µM,> 100 µM,> 100 µM,> 100 µM,> 100 µM,> 100 µM,> 100 µM,> 100 µM,> 100 µM,,> 100 µM
Cc1ccc(/C=N/n2c(Cc3ccccc3)n[nH]c2=O)cc1,> 100 µM,> 100 µM,> 100 µM,> 100 µM,> 100 µM,> 100 µM,> 100 µM,> 100 µM,> 100 µM,,> 100 µM,> 100 µM
O=C(c1ccccc1)c1ccc(N2C(=O)/C(=C/Cc3ccco3)N=C2c2ccccc2)c(N2C(=O)/C(=C/Cc3ccco3)N=C2c2ccccc2)c1,88.5 µM,,,> 100 µM,> 100 µM,> 100 µM,> 100 µM,45.7 µM,66.9 µM,43.8 µM,> 100 µM,> 100 µM
CCc1c(CN)c(CC)c(CNC2=NCCN2)c(CC)c1CNC1=NCCN1,> 100 µM,> 100 µM,> 100 µM,> 100 µM,> 100 µM,> 100 µM,> 100 µM,,> 100 µM,> 100 µM,> 100 µM,> 100 µM
c1ccc2c(c1)NCCC(=NC1CCCCC1)N2,> 100 µM,> 100 µM,> 100 µM,> 100 µM,> 100 µM,> 100 µM,> 100 µM,> 100 µM,> 100 µM,> 100 µM,,> 100 µM
FC(F)(F)c1ccc(Cc2nc3cc4ccccc4cc3[nH]2)cc1,> 100 µM,> 100 µM,> 100 µM,> 100 µM,> 100 µM,> 100 µM,> 100 µM,> 100 µM,36.1 µM,> 100 µM,,> 100 µM
Nc1ccc2nc3c(nc2c1)C(=O)c1ccccc1-3,> 100 µM,> 100 µM,> 100 µM,> 100 µM,> 100 µM,> 100 µM,> 100 µM,> 100 µM,> 100 µM,> 100 µM,,> 100 µM
C1=NCCN2CCN(CCN=Cc3ccccc3OCc3cccc(n3)COc3ccccc31)CC2,,4.68 µM,,> 50 µM,25.9 µM,26.3 µM,35.5 µM,22.6 µM,32.5 µM,10.2 µM,15.4 µM,17.2 µM

# Reference: PubChem BioAssay (NCI)
